The source made the active and inactive calls. The rule behind the calls is not given here.
What was measured:
HepG2 [1] = test: Cytotoxicity against human HepG2 cells assessed as cell viability up to 100 uM incubated for 24 hrs by MTT assay; format: toxicity, cell-based; conditions: hepg2, 24 h
Mus musculus [2] = test: Reversal of STZ-NA induced histological abnormalities in diabetic mouse model assessed as enlarged extracellular gaps at 10 mg/kg, po after 21 days by hematoxylin and eosin staining based microscopic assay; format: functional, organism-based; conditions: time 21.0 day
Dipeptidyl peptidase 4 = Dipeptidyl peptidase 4 (Homo sapiens, UniProt P27487); test: Inhibition of human recombinant DPP-4 using Gly-Pro-AMC as fluorogenic substrate by measuring fluorescence intensity incubated for 30 mins
Dipeptidyl peptidase 4, sequence (P27487 whole entry): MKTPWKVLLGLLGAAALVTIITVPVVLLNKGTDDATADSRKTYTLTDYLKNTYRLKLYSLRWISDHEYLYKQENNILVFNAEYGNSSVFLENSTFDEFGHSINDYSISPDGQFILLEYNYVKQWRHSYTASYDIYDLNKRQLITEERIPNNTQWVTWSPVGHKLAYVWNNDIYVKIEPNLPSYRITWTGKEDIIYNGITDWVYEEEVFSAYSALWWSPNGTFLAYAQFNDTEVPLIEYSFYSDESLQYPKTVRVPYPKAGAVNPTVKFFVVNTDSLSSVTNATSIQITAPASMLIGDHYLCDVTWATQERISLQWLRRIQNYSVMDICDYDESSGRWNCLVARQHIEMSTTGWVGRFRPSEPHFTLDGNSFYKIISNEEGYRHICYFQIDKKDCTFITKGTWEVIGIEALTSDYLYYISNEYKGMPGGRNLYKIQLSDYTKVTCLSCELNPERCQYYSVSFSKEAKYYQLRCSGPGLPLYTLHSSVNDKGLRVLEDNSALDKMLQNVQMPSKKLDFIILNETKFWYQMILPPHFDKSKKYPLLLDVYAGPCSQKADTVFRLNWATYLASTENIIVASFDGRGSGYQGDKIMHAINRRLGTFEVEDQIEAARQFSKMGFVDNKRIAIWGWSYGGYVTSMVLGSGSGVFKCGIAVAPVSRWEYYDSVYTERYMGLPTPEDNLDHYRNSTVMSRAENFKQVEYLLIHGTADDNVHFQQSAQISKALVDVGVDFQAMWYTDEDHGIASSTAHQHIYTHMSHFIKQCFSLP

Mus musculus [3] = test: Reversal of STZ-NA induced increase in DPP-4 mRNA production in po dosed diabetic mouse model assessed as decrease in DPP-4 mRNA expression in liver tissue by measuring mean fluorescence intensity after 21 days by RT-qPCR analysis; format: functional, organism-based; conditions: dose 5-10 mg/kg, time 21.0 day
Mus musculus [4] = species: Mus musculus; conditions: dose 5 mg/kg; route po; time 21 day
Description: Reversal of STZ-NA induced total ROS formation in diabetic mouse model assessed as decrease in ROS production by measuring mean fluorescence intensity at 5 mg/kg, po after 21 days (Rvb = 287228 No_unit)

HepG2 [5] = conditions: dose 15 nM; time 24 hrs
Mus musculus [6] = test: Anti-diabetic activity against STZ-NA induced diabetic Swiss Albino mouse model assessed as decrease in blood glucose level at 5 mg/kg, po measured up to 240 mins by Oral glucose tolerance test relative to control; format: functional, organism-based
Mus musculus [7] = species: Mus musculus; conditions: dose 10 mg/kg; route po; time 21 day
Description: Reversal of STZ-NA induced total ROS formation in diabetic mouse model assessed as decrease in ROS production by measuring mean fluorescence intensity at 10 mg/kg, po after 21 days (Rvb = 287228 No_unit)

Mus musculus [8] = test: Reversal of STZ-NA induced histological abnormalities in diabetic mouse model assessed as hepatic portal vein at 10 mg/kg, po after 21 days by hematoxylin and eosin staining based microscopic assay; format: functional, organism-based; conditions: time 21.0 day
[9] = Toxicity in STZ-NA induced diabetic Swiss Albino mouse model assessed as decrease in body weight at 5 mg/kg, po measured after 21 days; format: organism-based; conditions: in vivo, 504 h, time 21 day
Mus musculus [10] = species: Mus musculus; conditions: dose 5 mg/kg; route po; time 21 day; remark: listed apart in the source
Mus musculus [11] = test: Chronic anti-hyperglycemic activity against STZ-NA induced diabetic Swiss Albino mouse model assessed as reduction in blood glucose level at 10 mg/kg, po measured up to 21 days; format: functional, organism-based; conditions: time <= 21.0 day
Mus musculus [12] = test: Anti-diabetic activity against STZ-NA induced diabetic Swiss Albino mouse model assessed as decrease in blood glucose level at 10 mg/kg, po measured up to 240 mins by Oral glucose tolerance test relative to control; format: functional, organism-based
Mus musculus [13] = test: Effect on STZ-NA induced histological abnormalities in diabetic mouse model assessed as change in hepatocyte density at 10 mg/kg, po after 21 days by hematoxylin and eosin staining based microscopic assay; format: functional, organism-based; conditions: time 21.0 day
Mus musculus [14] = species: Mus musculus; conditions: dose 10 mg/kg; route po; time 21 day; remark: listed apart in the source
Description: Reversal of STZ-NA induced increase in DPP-4 production in diabetic mouse model assessed as decrease in DPP-4 expression in liver tissue by measuring mean fluorescence intensity at 10 mg/kg, po after 21 days by flow cytometry (Rvb = 322245 No_unit)

Mus musculus [15] = test: Reversal of STZ-NA induced increase in DPP-4 expression in po dosed diabetic mouse model assessed as decrease in DPP-4 expression in cellular region after 21 days by Immunohistochemical analysis; format: functional, organism-based; conditions: dose 5-10 mg/kg, time 21.0 day
Mus musculus [16] = test: Reversal of STZ-NA induced histological abnormalities in diabetic mouse model assessed as vacuolation and mild congestion at 10 mg/kg, po after 21 days by hematoxylin and eosin staining based microscopic assay; format: functional, organism-based; conditions: time 21.0 day
HepG2 [17] = conditions: dose 15 nM; time 24 hrs; remark: listed apart in the source
Mus musculus [18] = test: Effect on STZ-NA induced histological abnormalities in diabetic mouse model assessed as change in appearance of liver at 10 mg/kg, po after 21 days by hematoxylin and eosin staining based microscopic assay; format: functional, organism-based; conditions: time 21.0 day
[19] = Toxicity in STZ-NA induced diabetic Swiss Albino mouse model assessed as decrease in body weight at 10 mg/kg, po measured after 21 days; format: organism-based; conditions: in vivo, 504 h, time 21 day
Mus musculus [20] = test: Effect on STZ-NA induced histological abnormalities in diabetic mouse model assessed as change in hepatocyte size at 10 mg/kg, po after 21 days by hematoxylin and eosin staining based microscopic assay; format: functional, organism-based; conditions: time 21.0 day
Mus musculus [21] = test: Reversal of STZ-NA induced histological abnormalities in diabetic mouse model assessed as vacuoles at 10 mg/kg, po after 21 days by hematoxylin and eosin staining based microscopic assay; format: functional, organism-based; conditions: time 21.0 day
Mus musculus [22] = species: Mus musculus; conditions: dose 5 mg/kg; route po; time 21 day; remark: listed apart in the source
Description: Reversal of STZ-NA induced increase in DPP-4 production in diabetic mouse model assessed as decrease in DPP-4 expression in liver tissue by measuring mean fluorescence intensity at 5 mg/kg, po after 21 days by flow cytometry (Rvb = 322245 No_unit)

Mus musculus [23] = test: Acute anti-hyperglycemic activity against STZ-NA induced diabetic Swiss Albino mouse model assessed as reduction in blood glucose level at 10 mg/kg, po measured up to 24 hrs; format: functional, organism-based
Mus musculus [24] = species: Mus musculus; conditions: dose 10 mg/kg; route po; time 21 day; remark: listed apart in the source
Mus musculus [25] = test: Effect on STZ-NA induced histological abnormalities in diabetic mouse model assessed as change in hepatocyte structure at 10 mg/kg, po after 21 days by hematoxylin and eosin staining based microscopic assay; format: functional, organism-based; conditions: time 21.0 day
Mus musculus [26] = test: Chronic anti-hyperglycemic activity against STZ-NA induced diabetic Swiss Albino mouse model assessed as reduction in blood glucose level at 5 mg/kg, po measured up to 21 days; format: functional, organism-based; conditions: time <= 21.0 day
Mus musculus [27] = test: Acute anti-hyperglycemic activity against STZ-NA induced diabetic Swiss Albino mouse model assessed as reduction in blood glucose level at 5 mg/kg, po measured up to 24 hrs; format: functional, organism-based

With `Cn1c(=O)c2c(nc(Oc3ccc(C=O)cc3)n2Cc2ccc(Cl)cc2Cl)n(C)c1=O` the Activity (HepG2 [1]) was “Non-toxic”.

In the case of `Cn1c(=O)c2c(nc(N3CCOCC3)n2Cc2ccccc2)n(C)c1=O`, the Activity (Mus musculus [2]) is reported as “Active”, the IC50 (Dipeptidyl peptidase 4) is reported as 15.7 nM and the Activity (HepG2 [1]) is reported as “Non-toxic”. For the same compound, the Activity (Mus musculus [3]) was “Dose-dependent-effect”, the Flu intensity (Mus musculus [4]) was 82220 and the Flu intensity (HepG2 [5]) was 1460. For the same compound, the Activity (Mus musculus [6]) was “Active”, the Flu intensity (Mus musculus [7]) was 49658 and the Activity (Mus musculus [8]) was “Active; Hepatic Portal Vein Looked Similar To Normal Group”. The Activity [9] was “Toxic”, the Flu intensity (Mus musculus [10]) was 11036 and the Activity (Mus musculus [11]) was “Active; Results Comparable To Linagliptin”. The Activity (Mus musculus [12]) was “Active”, the Activity (Mus musculus [13]) was “inactive” and the Flu intensity (Mus musculus [14]) was 89888. The Activity (Mus musculus [15]) was “Dose-dependent-effect”, the Activity (Mus musculus [16]) was “inactive” and the Flu intensity (HepG2 [17]) was 6930. The Activity (Mus musculus [18]) was “inactive”, the Activity [19] was “Toxic” and the Activity (Mus musculus [20]) was “inactive”. For the same compound, the Activity (Mus musculus [21]) was “Active”, the Flu intensity (Mus musculus [22]) was 240545 and the Activity (Mus musculus [23]) was “Active; Results Comparable To Linagliptin”. The Flu intensity (Mus musculus [24]) was 4811 and the Activity (Mus musculus [25]) was “inactive”.

With `Cn1c(=O)c2c(nc(Oc3ccc(Br)cc3)n2CC(=O)c2ccc(-c3ccccc3)cc2)n(C)c1=O` the Activity (HepG2 [1]) was “Non-toxic”.

For `Cn1c(=O)n(Cc2ccccc2)c(=O)c2c1nc(Oc1ccc([N+](=O)[O-])cc1)n2Cc1ccc(C#N)cc1`, the Activity (HepG2 [1]) was “Non-toxic”.

In the case of `CC#CCn1c(N2CCC[C@@H](N)C2)nc2c1c(=O)n(Cc1nc(C)c3ccccc3n1)c(=O)n2C` [LINAGLIPTIN], the Activity (Mus musculus [26]) is reported as “Active”, the Flu intensity (Mus musculus [4]) is reported as 15930 and the Flu intensity (HepG2 [5]) is reported as 1212. For the same compound, the Activity (Mus musculus [6]) was “Active”, the Activity (Mus musculus [27]) was “Active” and the Activity [9] was “Toxic”. For the same compound, the Flu intensity (Mus musculus [10]) was 2520, the Flu intensity (HepG2 [17]) was 3493 and the Flu intensity (Mus musculus [22]) was 20334.

With `Cc1ccc(Cn2cnc3c2c(=O)n(Cc2ccc(C#N)cc2)c(=O)n3C)cc1` the Activity (HepG2 [1]) was “Non-toxic”.

In the case of `Cn1c(=O)c2c(nc(Oc3ccc(C=O)cc3)n2Cc2ccc(F)cc2)n(C)c1=O`, the Activity (HepG2 [1]) is reported as “Non-toxic”.

For `C=CCn1c(Oc2ccc([N+](=O)[O-])cc2)nc2c1c(=O)n(Cc1nc(C)c3ccccc3n1)c(=O)n2C`, the Activity (Mus musculus [2]) was “Active”, the Activity (HepG2 [1]) was “Non-toxic” and the Activity (Mus musculus [3]) was “Dose-dependent-effect”. For the same compound, the Flu intensity (Mus musculus [4]) was 165558, the Flu intensity (HepG2 [5]) was 3565 and the Activity (Mus musculus [6]) was “Active”. The Flu intensity (Mus musculus [7]) was 138121, the Activity (Mus musculus [8]) was “Active; Hepatic Portal Vein Looked Similar To Normal Group” and the Activity [9] was “Toxic”. The Flu intensity (Mus musculus [10]) was 36602, the Activity (Mus musculus [12]) was “Active” and the Activity (Mus musculus [13]) was “inactive”. For the same compound, the Flu intensity (Mus musculus [14]) was 154821, the Activity (Mus musculus [15]) was “Dose-dependent-effect” and the Activity (Mus musculus [16]) was “inactive”. The Flu intensity (HepG2 [17]) was 82988, the Activity (Mus musculus [18]) was “inactive” and the Activity [19] was “Toxic”. The Activity (Mus musculus [20]) was “inactive”, the Activity (Mus musculus [21]) was “Active” and the Flu intensity (Mus musculus [22]) was 248748. For the same compound, the Flu intensity (Mus musculus [24]) was 9136 and the Activity (Mus musculus [25]) was “inactive”.

With `Cn1c(=O)[nH]c(=O)c2c1nc(Oc1ccc([N+](=O)[O-])cc1)n2Cc1ccc(C#N)cc1` the Activity (HepG2 [1]) was “Non-toxic”.

With `Cn1c(=O)c2c(nc(N3CCOCC3)n2Cc2ccc(F)cc2)n(C)c1=O` the Activity (HepG2 [1]) was “Non-toxic”.

In the case of `Cn1c(=O)c2c(nc(N3CCOCC3)n2Cc2cccc([N+](=O)[O-])c2)n(C)c1=O`, the Activity (HepG2 [1]) is reported as “Non-toxic”.

In the case of `C=CCn1c(=O)c2c(ncn2Cc2ccc(C#N)cc2)n(Cc2ccccc2)c1=O`, the Activity (HepG2 [1]) is reported as “Non-toxic”.

For `Cn1c(=O)c2c(nc(Oc3ccc([N+](=O)[O-])cc3)n2CC(=O)c2ccc(-c3ccccc3)cc2)n(C)c1=O`, the Activity (HepG2 [1]) was “Non-toxic”.

With `Cn1c(=O)[nH]c(=O)c2c1nc(N1CCOCC1)n2Cc1ccc(Cl)cc1` the Activity (HepG2 [1]) was “Non-toxic”.

With `Cn1c(=O)c2c(nc(Oc3ccc([N+](=O)[O-])cc3)n2Cc2ccc(Cl)cc2Cl)n(C)c1=O` the Activity (HepG2 [1]) was “Non-toxic”.

In the case of `COc1cccc(Cn2c(N3CCOCC3)nc3c2c(=O)n(C)c(=O)n3C)c1`, the IC50 (Dipeptidyl peptidase 4) is reported as 27.9 nM and the Activity (HepG2 [1]) is reported as “Non-toxic”.

With `Cn1c(=O)c2c(nc(Oc3ccc4ccc(=O)oc4c3)n2CC(=O)c2ccc(-c3ccccc3)cc2)n(C)c1=O` the Activity (HepG2 [1]) was “Non-toxic”.

Reference: ChEMBL document CHEMBL6078720, “Design and synthesis of novel 3,7-dihydro-1H-purine-2,6-diones as DPP-4 inhibitors: An in silico, in vitro and in vivo approach” (Eur J Med Chem, 2025)
